Measured values from patent US20100173991A1, “METHOD FOR THE SYNTHESIS OF A-RING AROMATIZED ACETYL MINOCYCLINES” (priority 2007, published 2010).
Structures can show the parent of a compound that is named as a salt.

Columns and labels:
[1] = test system: Astroglia cells, non neoplastic embryonal astrocyte cell line of the rat, damaged by H2O2; assay type: cell-based; settings: 30 min pre-incubation with 1.0, 5.0 or 25.0 μM, then 1.0 or 3.0 mM H2O2 for 2 hours; microscopic assessment of cell shape and mitochondria
Description: The test of the cell-protecting properties of the substances produced in the inventive method was carried out, exemplarily for a pure form of pentaacetyl cyclin of Formula II, by means of an astrocyte damaging model. This model is used for the examination of neurodegenerative diseases caused by oxidative stress or for the test of cell-protecting substances that can avoid or reduce such damage. In the exemplary model astrocytes are damaged by hydrogen peroxide (H2O2) and afterwards the functionality and morphology of the cells and mitochondria are microscopically assessed. An overproduction of H2O2 as reactive oxygen species (ROS) is considered to be, amongst others, the cause for many neurodegenerative processes and diseases in the CNS, such as stroke, Alzheimer's disease Parkinson's disease, post-traumatic injuries of the brain and spinal cord. Astonishingly, already much lower doses of pentaacetyl cyclin of Formula II could considerably reduce the damage of the mitochondria compared to the comparative substance minocycline hydrochloride (Example 3 and FIG. 4).
Astroglia cells, i.e. non neoplastic embryonal astrocyte cell line of the rat [Chamaon, K., Kirches, E., Kanakis, D., Braeuninger, S., Dietzmann, K., and Mawrin, C. (2005). […] A Zeiss Axiophot fluorescence microscope with CCD camera (AxioCam MRc) was used for the visual inspection and documentation. […]

E. coli C 600 hfc strain = test: Antibiotic effect in the agar diffusion test; assay type: cell-based; settings: filter paper sheets soaked with DMSO solutions 100 μM to 2.5 mM; LB agar, 37° C., 24 hours
Description: The test of the antibiotic effect of the pentaacetyl cyclin obtained in the inventive method was performed by using an E. coli strain (Embodiment 4). […] The liquid culture (cultivated in LB-Lennox-L-Broth-Base for 24 hours) of an E. coli suspension (150 μl) of the C 600 hfc strain was evenly distributed on LB agar (Lennox-L-Agar, Gibco) by means of a sterile Drigalski spatula. Afterwards, sterile filter paper sheets (diameter 5.3 mm) that have been soaked with sterile DMSO solutions and different concentrations (100 μM to 2.5 mM) of minocycline hydrochloride or pentaacetyl cyclin (Formula II) were placed on the breeding ground. After the incubation of the agars at 37° C. for 24 hours, the antibiotic activity of the substances was assessed on the basis of the diameters of the inhibiting areolas that become visible due to the missing opacification by bacteria.

SMILES | concentration showing protective effect against H2O2-induced damage of cells/mitochondria [1] | growth inhibition of E. coli (inhibiting areolas) (E. coli C 600 hfc strain)
CN(C)c1ccc(O)c2c1C[C@H]1C[C@H]3[C@H](N(C)C)C(O)=C(C(N)=O)C(=O)[C@@]3(O)C(O)=C1C2=O [minocycline hydrochloride, Minocycline hydrochloride, reference compound] | 25 µM | –
CC(=O)NC(=O)c1c(OC(C)=O)c2c(c(N(C)C)c1OC(C)=O)CC1Cc3c(N(C)C)ccc(OC(C)=O)c3C(=O)C1=C2OC(C)=O (stereo not drawn) [pentaacetyl cyclin, A-ring aromatized pentaacetyl minocycline] | 1.0 µM | does not show any growth inhibition
